Measured values published in article PMC2263054, “Functional evolution of the vitamin D and pregnane X receptors” (BMC Evolutionary Biology, 2007).

How the values were obtained:
Human VDR = molecular target: T1, Human VDR (Homo sapiens, UniProt P11473); test: luciferase reporter transactivation assay in HepG2-NTCP cells, full-length hVDR with CYP3A4-PXRE-Luc; conditions: HepG2-NTCP cells, luciferase reporter; unit not given; also cells saying No effect
T1 sequence (P11473 1-427): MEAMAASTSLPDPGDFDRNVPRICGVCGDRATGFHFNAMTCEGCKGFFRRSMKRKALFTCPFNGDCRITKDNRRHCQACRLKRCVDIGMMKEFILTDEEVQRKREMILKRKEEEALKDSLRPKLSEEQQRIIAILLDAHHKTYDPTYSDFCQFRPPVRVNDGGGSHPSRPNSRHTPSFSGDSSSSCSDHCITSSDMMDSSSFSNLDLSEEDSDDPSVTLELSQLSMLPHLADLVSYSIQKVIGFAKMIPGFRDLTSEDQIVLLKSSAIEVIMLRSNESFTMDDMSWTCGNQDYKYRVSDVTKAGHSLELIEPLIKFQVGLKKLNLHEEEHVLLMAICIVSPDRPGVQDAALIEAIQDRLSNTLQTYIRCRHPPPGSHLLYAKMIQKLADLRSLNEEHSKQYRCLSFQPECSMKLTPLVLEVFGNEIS

Mouse VDR = molecular target: T2, Mouse VDR (Mus musculus, UniProt P48281); test: luciferase reporter transactivation assay in HepG2-NTCP cells, full-length mVDR with CYP3A4-PXRE-Luc; conditions: HepG2-NTCP cells, luciferase reporter; unit not given; also cells saying No effect
T2 sequence (P48281 1-422): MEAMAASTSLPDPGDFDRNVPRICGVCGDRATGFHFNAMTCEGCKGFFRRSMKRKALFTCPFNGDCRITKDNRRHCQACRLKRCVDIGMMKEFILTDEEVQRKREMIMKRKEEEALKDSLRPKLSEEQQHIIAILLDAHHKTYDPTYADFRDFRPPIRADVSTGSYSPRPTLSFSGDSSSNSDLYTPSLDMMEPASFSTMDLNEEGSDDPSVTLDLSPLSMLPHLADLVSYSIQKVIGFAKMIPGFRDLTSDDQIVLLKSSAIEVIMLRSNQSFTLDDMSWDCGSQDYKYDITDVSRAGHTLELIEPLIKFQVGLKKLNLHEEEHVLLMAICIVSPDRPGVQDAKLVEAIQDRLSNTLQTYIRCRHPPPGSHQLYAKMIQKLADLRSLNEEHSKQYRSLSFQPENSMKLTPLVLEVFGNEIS

Xenopus laevis VDR = molecular target: T3, Xenopus laevis VDR (Xenopus laevis, UniProt O13124); test: luciferase reporter transactivation assay in HepG2-NTCP cells, GAL4/xlVDR LBD chimera with tk-UAS-Luc; format: cell-based; conditions: for Xenopus VDR EC50 ± SD: HepG2-NTCP cells, luciferase reporter, unit not given, also cells saying No effect
T3 sequence (O13124 90-422): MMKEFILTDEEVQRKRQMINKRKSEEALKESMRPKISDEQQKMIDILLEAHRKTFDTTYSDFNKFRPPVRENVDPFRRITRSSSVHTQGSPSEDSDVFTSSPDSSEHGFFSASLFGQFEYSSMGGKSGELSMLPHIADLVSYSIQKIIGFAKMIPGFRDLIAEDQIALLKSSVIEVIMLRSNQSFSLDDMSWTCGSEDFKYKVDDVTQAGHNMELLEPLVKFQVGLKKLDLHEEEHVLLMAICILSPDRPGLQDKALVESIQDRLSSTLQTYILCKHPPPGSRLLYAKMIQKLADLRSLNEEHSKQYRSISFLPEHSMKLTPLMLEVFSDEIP

Zebrafish VDR = molecular target: T4, Zebrafish VDR (Danio rerio, UniProt Q9PTN2); test: luciferase reporter transactivation assay in HepG2-NTCP cells, GAL4/zfVDR LBD chimera with tk-UAS-Luc; format: cell-based; conditions: for Zebrafish VDR EC50 ± SD: HepG2-NTCP cells, luciferase reporter, unit not given, also cells saying No effect
T4 sequence (Q9PTN2 121-453): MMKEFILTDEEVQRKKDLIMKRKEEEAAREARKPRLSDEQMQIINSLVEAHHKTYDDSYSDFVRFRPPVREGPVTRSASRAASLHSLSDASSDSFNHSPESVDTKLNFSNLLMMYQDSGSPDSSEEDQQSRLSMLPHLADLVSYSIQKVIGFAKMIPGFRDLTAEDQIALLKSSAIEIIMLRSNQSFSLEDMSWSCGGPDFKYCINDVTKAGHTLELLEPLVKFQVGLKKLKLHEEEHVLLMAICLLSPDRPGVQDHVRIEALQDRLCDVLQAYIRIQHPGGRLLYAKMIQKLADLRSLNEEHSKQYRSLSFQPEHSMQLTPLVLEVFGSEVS

Sea lamprey VDR = molecular target: T5, Sea lamprey VDR (Petromyzon marinus, UniProt Q7ZZY9); format: cell-based; conditions: for Sea lamprey VDR EC50 ± SD: HepG2-NTCP cells, luciferase reporter, unit not given, also cells saying No effect
T5 sequence (Q7ZZY9 92-406): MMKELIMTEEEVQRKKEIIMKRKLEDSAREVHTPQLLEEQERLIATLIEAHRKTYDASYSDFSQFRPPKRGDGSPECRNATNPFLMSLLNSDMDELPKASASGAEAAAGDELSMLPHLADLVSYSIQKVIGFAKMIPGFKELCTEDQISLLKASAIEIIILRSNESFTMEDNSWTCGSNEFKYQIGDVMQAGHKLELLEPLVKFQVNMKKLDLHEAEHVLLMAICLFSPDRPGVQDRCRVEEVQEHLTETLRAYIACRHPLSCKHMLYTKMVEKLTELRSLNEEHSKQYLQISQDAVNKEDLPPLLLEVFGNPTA

[1] = test system: testosterone 6β-hydroxylation; test: testosterone hydroxylation (HPLC) in sea lamprey primary hepatocytes; format: cell-based; conditions: concentration ranges per compound
Procedure: (§1) 100 μL of sample, calibration standard, or quality material standard were pipetted into separate microcentrifuge tubes and mixed with 100 μL of methanol. Samples were vortexed and centrifuged at 13,000 rpm for 4 min. The supernatant was then injected into the HPLC.
(§2) The flow rate was 1.2 mL/min and total run time was 25 min.

[2] = test system: Flurbiprofen 4-hydroxylation; test: flurbiprofen hydroxylation assay in sea lamprey primary hepatocytes; format: cell-based; conditions: 48 hour treatment, 5α-petromyzonol 20 μM, 3-MC 5 μM, basal 2.8
EROD activity [3] = test: EROD assay in sea lamprey primary hepatocytes; conditions: 24–48 hr exposure
[4] = test system: ethoxyresorufin O-deethylase (EROD) activity (CYP1A-like activity); test: EROD assay in zebrafish primary hepatocytes; conditions: for maximal rate of EROD activity: zebrafish primary hepatocytes, 24 hour exposure (Figure 3 legend: 48-hour)
Procedure: (§3) The cells are cultured at 26°C in ambient atmosphere.

[5] = test system: testosterone 6β-hydroxylation activity (CYP3A-like activity); test: testosterone hydroxylation (HPLC) in zebrafish primary hepatocytes
Procedure: as §3, §1, §2

zebrafish PXR = conditions: luciferase reporter in HepG2 cells, normalized to 20 μM androstanol
EROD activity [6] = test: EROD assay in African clawed frog primary hepatocytes; format: cell-based, Xenopus laevis; conditions: 48 hour exposure
Procedure: Xenopus laevis primary hepatocytes were cultured by a protocol adapted from a published report. Frogs are sacrificed with MS-222, rinsed with 70% ethanol, and the liver lobes perfused via the heart, initially with 375 mL Barth (88 mM NaCl, 1 mM K2SO4, and 10 mM HEPES-NaOH, pH 7.4) containing 0.82 mM MgCl2 and 0.1 mg/mL heparin, and then with 25 mL Barth containing 2.22 mM Ca(NO3)2, 2.74 mM CaCl2, and 200 U/mL type I collagenase (Worthington Chemicals, Lakewood, NJ). Livers are minced to fine pieces in 12.5 mL Barth-collagenase solution and then incubated for 10 min at room temperature, periodically disaggregating the liver pieces with a Pasteur pipette. The liver cells are then placed on a shaking incubator for 5 min at room temperature, followed by another 10 min of periodic pipetting to complete disaggregation. Cells are then filtered through a 130 μm Nitex nylon mesh (Fisher Scientific), following by spinning at 500 g for 5 min at 4°C. The supernatant is then aspirated and diluted to 50 mL with Barth plus MgCl2 and then allowed to settle while cooled in ice for 30 min. The supernatant is removed, and the cellular pellet is resuspended and subjected to one more round of nylon mesh filtration, dilution in Barth plus MgCl2, and settling while cooled in ice. […]

[7] = test system: 6β- and 12α-hydroxylation of testosterone; test: testosterone hydroxylation (HPLC) in African clawed frog primary hepatocytes; format: cell-based, Xenopus laevis; conditions: relative to vehicle control
Procedure: Xenopus laevis primary hepatocytes were cultured by a protocol adapted from a published report. Frogs are sacrificed with MS-222, rinsed with 70% ethanol, and the liver lobes perfused via the heart, initially with 375 mL Barth (88 mM NaCl, 1 mM K2SO4, and 10 mM HEPES-NaOH, pH 7.4) containing 0.82 mM MgCl2 and 0.1 mg/mL heparin, and then with 25 mL Barth containing 2.22 mM Ca(NO3)2, 2.74 mM CaCl2, and 200 U/mL type I collagenase (Worthington Chemicals, Lakewood, NJ). Livers are minced to fine pieces in 12.5 mL Barth-collagenase solution and then incubated for 10 min at room temperature, periodically disaggregating the liver pieces with a Pasteur pipette. The liver cells are then placed on a shaking incubator for 5 min at room temperature, followed by another 10 min of periodic pipetting to complete disaggregation. Cells are then filtered through a 130 μm Nitex nylon mesh (Fisher Scientific), following by spinning at 500 g for 5 min at 4°C. The supernatant is then aspirated and diluted to 50 mL with Barth plus MgCl2 and then allowed to settle while cooled in ice for 30 min. The supernatant is removed, and the cellular pellet is resuspended and subjected to one more round of nylon mesh filtration, dilution in Barth plus MgCl2, and settling while cooled in ice. The supernatant is removed and the remaining cells are washed once with Barth plus MgCl2 and then centrifuged at 500 g for 5 min at 4°C. The cells are then resuspended in 0.6 × Coon's Modified Ham's F-12 medium (Invitrogen) supplemented with 0.1 × Barth (88 mM NaCl, 1 mM K2SO4, 10 mM HEPES), 200 U/mL penicillin G, 100 μg/mL streptomycin sulfate, 2 mM glutamine, 0.2% glucose, and 10 μg/mL bovine insulin (Calbiochem), with the final pH adjusted to 7.5. […] Cells are cultured at 20°C in ambient atmosphere.
Testosterone metabolites were identified and quantitated by HPLC. […] The supernatant was then injected into the HPLC.

[8] = test system: flurbiprofen 4-hydroxylation activity (CYP2C-like activity); conditions: zebrafish primary hepatocytes, 48-hour exposure; TCDD 1 nM, androstanol 200 μM
[9] = screening for activators, at least three concentrations of each drug

Row | SMILES | Human VDR EC50 ± SD (Human VDR) | Mouse VDR EC50 ± SD (Mouse VDR) | Xenopus VDR EC50 ± SD (Xenopus laevis VDR) | Zebrafish VDR EC50 ± SD (Zebrafish VDR) | Sea lamprey VDR EC50 ± SD (Sea lamprey VDR) | effect on testosterone 6β-hydroxylation [1] | Flurbiprofen 4-hydroxylation activity [2] | effect on EROD activity (EROD activity [3]) | maximal rate of EROD activity [4] | also measured
1 | C[C@H](CCCO)[C@H]1CC[C@H]2[C@@H]3[C@H](O)C[C@H]4C[C@H](O)CC[C@]4(C)[C@H]3C[C@H](O)[C@]12C [5α-Petromyzonol, 5α-cholan-3α,7α,12α,24-tetrol] | No effect | No effect | No effect | No effect | No effect | None of these compounds produced significant increases in testosterone 6β-hydroxylation | 0.21 nmol/min/mg protein | did not alter EROD activity | – | Ciona VDR/PXR EC50 ± SD (Ciona VDR/PXR; HepG2-NTCP cells, luciferase reporter, unit not given, also cells saying No effect): No effect
2 | Clc1cc2c(cc1Cl)Oc1cc(Cl)c(Cl)cc1O2 [2,3,7,8-Tetrachlorodibenzo-p-dioxin, 2,3,7,8-tetrachlorodibenzo-p-dioxin] | No effect | No effect | No effect | No effect | No effect | None of these compounds produced significant increases in testosterone 6β-hydroxylation | – | did not alter EROD activity | 33.0 pmol/min/mg protein | EC50 at 24 h ([4]; zebrafish, pH 7.8): 0.15 ± 0.022 nM; EC50 at 48 h ([5]; zebrafish): 0.154 ± 0.03 nM; maximal rate of testosterone 6β-hydroxylation ([5]; zebrafish primary hepatocytes, 48-hour exposure): 2830 pmol/min/mg protein; activation of recombinant zebrafish PXR (zebrafish PXR): all activate recombinant zebrafish PXR; maximal rate of EROD activity (EROD activity [6]): 9.8 pmol/min/mg protein; EC50 (EROD activity [6]; Xenopus laevis, Hepatocyte, read-out: EC50 for increase of EROD activity): 6.5 ± 0.77 nM; effect on 6β- and 12α-hydroxylation of testosterone [7]: neither activity was substantially increased relative to vehicle control; Ciona VDR/PXR relative efficacy (Ciona VDR/PXR; relative to maximal reference compound (20 μM 6-formylindolo-[3,2-b]-carbazole, efficacy = 1.0)): 1.80; activation of ciVDR/PXR (Ciona VDR/PXR; unpublished data of the authors): activated; effect on flurbiprofen 4-hydroxylation activity [8]: Lesser increases relative to vehicle control
3 | Cc1ccc2cc3c(ccc4ccccc43)c3c2c1CC3 [3-Methylcholanthrene] | – | – | – | – | – | None of these compounds produced significant increases in testosterone 6β-hydroxylation | 0.33 nmol/min/mg protein | did not alter EROD activity | 28.1 pmol/min/mg protein | Effect on Xenopus laevis VDR (Xenopus laevis VDR; [9]): No effect; Effect on zebrafish VDR (Zebrafish VDR; [9]): No effect; Effect on sea lamprey VDR (Sea lamprey VDR; [9]): No effect; EC50 ([4]; zebrafish, pH 7.8): 373 ± 22 nM
